Our source for the EC50, Activity and concentration values is ChEMBL document CHEMBL3871307, “Discovery of Chromane Propionic Acid Analogues as Selective Agonists of GPR120 with in Vivo Activity in Rodents” (ACS Med Chem Lett, 2017).

In general, EC50 refers to the concentration that produces a half-maximal response.

Each structure is given as a SMILES string. The source made the active and inactive calls. The rule behind the calls is not given here. A value given as a limit tells only on which side of the number the result lay.

Series [1] has as its target T1, Free fatty acid receptor 4 (Homo sapiens, UniProt Q5NUL3).
T1 sequence (Q5NUL3 whole entry): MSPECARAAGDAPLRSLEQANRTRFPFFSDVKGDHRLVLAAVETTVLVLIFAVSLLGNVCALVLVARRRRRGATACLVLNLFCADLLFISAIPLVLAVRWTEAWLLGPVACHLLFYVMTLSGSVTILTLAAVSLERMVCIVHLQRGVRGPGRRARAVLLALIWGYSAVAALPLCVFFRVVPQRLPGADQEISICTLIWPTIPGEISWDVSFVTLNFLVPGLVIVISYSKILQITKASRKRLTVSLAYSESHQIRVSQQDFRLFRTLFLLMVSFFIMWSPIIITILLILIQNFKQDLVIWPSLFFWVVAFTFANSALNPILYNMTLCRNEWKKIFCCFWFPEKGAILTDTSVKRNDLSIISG
In words: Agonist activity at human GPR120 short isoform expressed in CHOK1 cells assessed as increase in IP1 accumulation after 60 mins by HTRF assay. In kind it is functional, cell-based, CHO-K1. For orientation: TR-FRET usually uses a lanthanide donor and a delayed reading to cut background.

The target in series [2] is Free fatty acid receptor 1 (Homo sapiens, UniProt O14842). In words: Agonist activity at human GPR40 expressed in HEK293 cells assessed as increase in IP1 accumulation after 60 mins by HTRF assay. In kind it is functional, cell-based.
The target in series [3] is T1, Free fatty acid receptor 4. In words: Agonist activity at human GPR120 short isoform expressed in CHOK1 cells assessed as beta-arrestin recruitment after 90 mins by luminescence assay. The format is cell-based, CHO-K1. Background: Recruitment of arrestin is a read-out of receptor activation apart from second messengers.
Series [4] addresses T2, Free fatty acid receptor 4 (Homo sapiens) (UniProt Q5NUL3).
T2 sequence (whole entry): T1 sequence (Q5NUL3 whole entry)
In words: Agonist activity at human GPR120 short isoform expressed in CHOK1 cells assessed as increase in IP1 accumulation at 10 uM after 60 mins by HTRF assay. In kind it is functional, cell-based. Particulars: CHO-K1.

Series [5] in a line: Plasma concentration in C57BL/6 transverse aortic constriction mouse at 100 mg/kg, po via gavage measured at 3 hrs. In kind it is ADME, organism-based. As to conditions: C57BL/6, mouse.
Series [6] has as its system Mus musculus. In words: Glucose lowering effect in C57BL/6 transverse aortic constriction mouse assessed as reduction in blood glucose at 100 mg/kg, po pretreated for 60 mins as single dose via gavage followed by dextrose challenge measured up to 120 mins post glucose challenge by OGTT. In kind it is functional, organism-based.
For series [7], the target named is T3, Free fatty acid receptor 4 (Mus musculus) (UniProt Q7TMA4).
T3 sequence (whole entry): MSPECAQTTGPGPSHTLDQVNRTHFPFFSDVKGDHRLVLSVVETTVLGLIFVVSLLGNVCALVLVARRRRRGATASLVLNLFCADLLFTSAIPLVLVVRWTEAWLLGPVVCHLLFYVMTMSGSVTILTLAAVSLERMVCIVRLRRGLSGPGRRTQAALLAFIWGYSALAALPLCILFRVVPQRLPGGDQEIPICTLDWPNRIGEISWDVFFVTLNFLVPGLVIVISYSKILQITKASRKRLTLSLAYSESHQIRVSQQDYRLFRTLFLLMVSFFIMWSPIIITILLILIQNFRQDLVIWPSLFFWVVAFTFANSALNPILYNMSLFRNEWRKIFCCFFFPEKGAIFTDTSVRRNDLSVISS
In words: Agonist activity at mouse GPR120 expressed in CHOK1 cells assessed as increase in IP1 accumulation after 60 mins by HTRF assay. In kind it is functional, cell-based. Particulars: CHO-K1.

The test system of series [8] is Mus musculus. In words: Glucose lowering effect in C57BL/6 transverse aortic constriction mouse assessed as reduction in blood glucose at 30 mg/kg, po pretreated for 60 mins as single dose via gavage followed by dextrose challenge measured up to 120 mins post glucose challenge by OGTT. The format is functional, organism-based.
Series [9] in a line: Plasma concentration in C57BL/6 transverse aortic constriction mouse at 30 mg/kg, po via gavage measured at 3 hrs. Particulars: C57BL/6, mouse. The format is ADME, organism-based.

Chain of Free fatty acid receptor 1 (O14842 whole entry, canonical isoform): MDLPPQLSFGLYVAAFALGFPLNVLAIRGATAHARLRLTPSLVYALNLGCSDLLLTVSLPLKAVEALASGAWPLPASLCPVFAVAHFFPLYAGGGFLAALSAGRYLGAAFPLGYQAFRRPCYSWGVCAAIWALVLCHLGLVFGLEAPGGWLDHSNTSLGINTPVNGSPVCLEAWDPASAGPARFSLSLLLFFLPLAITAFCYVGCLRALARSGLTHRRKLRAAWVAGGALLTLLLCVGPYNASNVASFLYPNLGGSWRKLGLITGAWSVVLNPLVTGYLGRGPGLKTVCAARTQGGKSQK

For `Fc1ccc(OC2CCC2)cc1-c1ccc2c(c1)CC[C@H](CCc1nnn[nH]1)O2`, the concentration giving a half-maximal response (EC50) in series [1] was 0.22 µM; in series [2] it was over 10 µM; in series [3] it was 0.084 µM. The Activity in [4] was 44%. The compound further showed a concentration at 3 h in [5] of 40.6 µM. For the same compound, the result (in the series with Mus musculus [6]; in [7]) was Active.
Take `CO[C@H]1C[C@H](Oc2cc(F)c(F)c(-c3ccc4c(c3)CC[C@H]([C@@H]3C[C@H]3C(=O)O)O4)c2)C1`: the results for the concentration giving a half-maximal response (EC50) in series [1], in series [2] and in series [3] were 0.045 µM, over 10 µM and 0.017 µM, respectively. Further, in series [4], the Activity was over 50%. The result in the series on Mus musculus [8] was Active. The concentration at 3 h in [9] was 37.4 µM.
